Assay results from PubChem BioAssay AID1745844 (Carcinogenic Potency Database (CPDB), 2022).
Active and inactive are the calls of the source. The rule behind the calls is not given here.

Tested on: rodent lifetime carcinogenesis bioassay, tumor incidence TD50
Experiment: chronic cancer bioassays in animals – CPDB, compiled studies (AID 1745844)
[1] = rat, strain Sprague-Dawley, females, in feed, site: any site (literature study), lesion: several types, types named in the paper, dosed 46 weeks, study length 66 weeks

Work on `CC1CN(/N=C/c2ccc([N+](=O)[O-])o2)C(=O)N1` (centres undefined) yielded a TD50 [1] of 5.59 mg/kg/day and a TD50 (rat, strain Sprague-Dawley, females, in feed, site: mammary gland, lesion: adenocarcinoma, dosed 46 weeks, study length 66 weeks) of 5.34 mg/kg/day.

For `CCN(CC)CCCNC(=O)Cn1ncc(-c2ccccc2)c1-c1ccccc1`, the carcinogen call (rat, strain Charles River CD (Sprague-Dawley), females, by gavage, site: liver, lesion: one or several types, types not named, dosed 52 weeks, study length 52 weeks) was “negative (inactive)” and the carcinogen call (rat, strain Charles River CD (Sprague-Dawley), males, by gavage, site: liver, lesion: one or several types, types not named, dosed 52 weeks, study length 52 weeks) was “negative (inactive)”.

In the case of `C=CCN(CC(O)CO)N=O` (centres undefined), the TD50 (rat, strain Fischer 344, females, in drinking water, site: esophagus, lesion: carcinoma, dosed 50 weeks, study length 55 weeks) is reported as 1.13 mg/kg/day, the TD50 (rat, strain Fischer 344, females, in drinking water, site: esophagus, lesion: several types, types named in the paper, dosed 50 weeks, study length 55 weeks) is reported as 0.825 mg/kg/day and the carcinogen call (rat, strain Fischer 344, females, in drinking water, site: liver, lesion: neoplastic nodule, dosed 50 weeks, study length 55 weeks) is reported as “negative (inactive)”. For the same molecule, the TD50 (rat, strain Fischer 344, females, in drinking water, site: nasal cavity, lesion: several types, types named in the paper, dosed 50 weeks, study length 55 weeks) was 0.972 mg/kg/day.

`O=NN1CCCN(N=O)CC1` was tested, and the TD50 (rat, strain Fischer 344, females, in drinking water, site: esophagus, lesion: several types, types named in the paper, dosed 30 weeks, study length 133 weeks) was 0.253 mg/kg/day, the TD50 (rat, strain Fischer 344, females, in drinking water, site: esophagus, lesion: several types, types named in the paper, dosed 60 weeks, study length 82 weeks) was 0.0553 mg/kg/day and the TD50 (rat, strain Fischer 344, females, in drinking water, site: esophagus, lesion: several types, types named in the paper, dosed 120 weeks, study length 133 weeks) was 0.105 mg/kg/day. For the same molecule, the carcinogen call (rat, strain Fischer 344, females, in drinking water, site: liver, lesion: several types, types named in the paper, dosed 30 weeks, study length 133 weeks) was “positive”, the TD50 (rat, strain Fischer 344, females, in drinking water, site: liver, lesion: several types, types named in the paper, dosed 120 weeks, study length 133 weeks) was 0.0973 mg/kg/day and the carcinogen call (rat, strain Fischer 344, females, in drinking water, site: nasal cavity, lesion: olfactory carcinoma, dosed 30 weeks, study length 133 weeks) was “positive”. It also gave a TD50 (rat, strain Fischer 344, females, in drinking water, site: nasal cavity, lesion: olfactory carcinoma, dosed 60 weeks, study length 82 weeks) of 0.207 mg/kg/day, a TD50 (rat, strain Fischer 344, females, in drinking water, site: tongue, lesion: basal-cell papilloma, dosed 120 weeks, study length 133 weeks) of 0.63 mg/kg/day and a TD50 (rat, strain Fischer 344, females, in drinking water, site: upper gastrointestinal tract, lesion: carcinoma, dosed 30 weeks, study length 133 weeks) of 0.24 mg/kg/day. The TD50 (rat, strain Fischer 344, females, in drinking water, site: upper gastrointestinal tract, lesion: carcinoma, dosed 60 weeks, study length 82 weeks) was 0.0469 mg/kg/day, the TD50 (rat, strain Fischer 344, females, in drinking water, site: upper gastrointestinal tract, lesion: several types, types named in the paper, dosed 30 weeks, study length 133 weeks) was 0.708 mg/kg/day and the TD50 (rat, strain Fischer 344, females, in drinking water, site: upper gastrointestinal tract, lesion: several types, types named in the paper, dosed 60 weeks, study length 82 weeks) was 0.0297 mg/kg/day. The TD50 (rat, strain Fischer 344, females, in drinking water, site: upper gastrointestinal tract, lesion: several types, types named in the paper, dosed 120 weeks, study length 133 weeks) was 0.0914 mg/kg/day.

In the case of `CC(=O)[O-].CC(=O)[O-].CC(=O)[O-].[Cr+3]`, the carcinogen call (mouse, strain Charles River CD1, females, in drinking water, site: any site (literature study), lesion: one or several types, types not named, dosed 145 weeks, study length 145 weeks) is reported as “negative (inactive)”, the carcinogen call (mouse, strain Charles River CD1, females, in drinking water, site: lung, lesion: one or several types, types not named, dosed 145 weeks, study length 145 weeks) is reported as “negative (inactive)” and the carcinogen call (mouse, strain Charles River CD1, males, in drinking water, site: any site (literature study), lesion: one or several types, types not named, dosed 139 weeks, study length 139 weeks) is reported as “negative (inactive)”. For the same molecule, the carcinogen call (mouse, strain Charles River CD1, males, in drinking water, site: lung, lesion: one or several types, types not named, dosed 139 weeks, study length 139 weeks) was “negative (inactive)”, the TD50 (rat, strain Long-Evans BLU:(LE), both sexes, in drinking water, site: any site (literature study), lesion: malignant tumor, dosed 182 weeks, study length 182 weeks) was 7.62 mg/kg/day (inactive) and the TD50 (rat, strain Long-Evans BLU:(LE), both sexes, in drinking water, site: any site (literature study), lesion: one or several types, types not named, dosed 182 weeks, study length 182 weeks) was 1.61 mg/kg/day (inactive). For the same molecule, the carcinogen call (rat, strain Long-Evans BLU:(LE), both sexes, in drinking water, site: liver, lesion: one or several types, types not named, dosed 182 weeks, study length 182 weeks) was “negative (inactive)”.

`CCNC(=O)Nc1ncc([N+](=O)[O-])s1` was tested, and the TD50 (mouse, strain B6C3F1, females, in feed, site: any site (literature study), lesion: several types, types named in the paper, dosed 94 weeks, study length 104 weeks) was 1400 mg/kg/day (inactive), the TD50 (mouse, strain B6C3F1, females, in feed, site: liver, lesion: hepatocellular adenoma + hepatocellular carcinoma + neoplastic nodule, dosed 94 weeks, study length 104 weeks) was 2720 mg/kg/day and the TD50 (mouse, strain B6C3F1, males, in feed, site: any site (literature study), lesion: several types, types named in the paper, dosed 94 weeks, study length 104 weeks) was 4750 mg/kg/day. For the same molecule, the TD50 (mouse, strain B6C3F1, males, in feed, site: liver, lesion: hepatocellular adenoma + hepatocellular carcinoma + neoplastic nodule, dosed 94 weeks, study length 104 weeks) was 758 mg/kg/day, the TD50 (mouse, strain B6C3F1, males, in feed, site: liver, lesion: hepatocellular adenoma + hepatocellular carcinoma, dosed 94 weeks, study length 104 weeks) was 758 mg/kg/day and the TD50 (mouse, strain B6C3F1, males, in feed, site: liver, lesion: hepatocellular carcinoma, dosed 94 weeks, study length 104 weeks) was 1900 mg/kg/day. The TD50 (rat, strain Fischer 344, females, in feed, site: any site (literature study), lesion: several types, types named in the paper, dosed 94 weeks, study length 104 weeks) was 175 mg/kg/day, the TD50 (rat, strain Fischer 344, females, in feed, site: mammary gland + skin + subcutaneous tissue, lesion: cystadenoma, NOS + fibroadenoma, dosed 94 weeks, study length 104 weeks) was 131 mg/kg/day and the carcinogen call (rat, strain Fischer 344, males, in feed, site: any site (literature study), lesion: several types, types named in the paper, dosed 94 weeks, study length 104 weeks) was “negative (inactive)”. For the same molecule, the TD50 (rat, strain Fischer 344, males, in feed, site: liver, lesion: hepatocellular adenoma + hepatocellular carcinoma + neoplastic nodule, dosed 94 weeks, study length 104 weeks) was 508 mg/kg/day.

With `NNc1nc(-c2ccccc2)cs1` the TD50 [1] was 311 mg/kg/day (inactive).
